US6143749A, “Heterocyclic substituted cyclopentane compounds” (Abbott Laboratories, priority 1996, dated 2000)

molecular target: adenosine kinase (Homo sapiens, UniProt P55263); experiment: inhibition of adenosine kinase activity in vitro; type: biochemical; conditions: Table 1, adenosine kinase
Text: The adenosine kinase to be inhibited can be located in vitro, in situ or in vivo. Where the adenosine kinase is located in vitro, adenosine kinase is contacted with the inhibitor compound, typically by adding the compound to an aqueous solution containing the enzyme, radiolabeled substrate adenosine, magnesium chloride and ATP. The enzyme can exist in intact cells or in isolated subcellular fractions containing the enzyme. The enzyme is then maintained in the presence of the inhibitor for a period of time and under suitable physiological conditions. Means for determining maintainence times are well known in the art and depend inter alia on the concentrations of enzyme and the physiological conditions. Suitable physiological conditions are those necessary to maintain adenosine kinase viability and include temperature, acidity, tonicity and the like. Inhibition of adenosine kinase can be performed, by example, according to standard procedures well known in the art (Yamada, et al, Comp. Biochem. Physiol. 1982, 71B: 367-372).
In vitro adenosine kinase activity can be measured using any of the standard procedures well known in the art. By way of example, cells containing adenosine kinase, such as IMR-32 human -neuroblastoma cells, are cultured in the presence and absence of an inhibitor. Inhibition is measured as the ability to inhibit phosphorylation of endogenous or externally applied ^14 C-adenosine by these cells. The cells can be intact or broken. The specificity of adenosine kinase inhibitory activity is determined by studying the effects of inhibitors on adenosine A1 and A2a receptor binding, adenosine deaminase activity and adenosine transport.
Numerous inhibitor compounds of the present invention were tested in vitro and found to inhibit adenosine kinase activity. The results of some representative studies are shown below in Tables 1 and 2.

Chain of adenosine kinase (Homo sapiens, UniProt P55263) (P55263 whole entry, species assumed): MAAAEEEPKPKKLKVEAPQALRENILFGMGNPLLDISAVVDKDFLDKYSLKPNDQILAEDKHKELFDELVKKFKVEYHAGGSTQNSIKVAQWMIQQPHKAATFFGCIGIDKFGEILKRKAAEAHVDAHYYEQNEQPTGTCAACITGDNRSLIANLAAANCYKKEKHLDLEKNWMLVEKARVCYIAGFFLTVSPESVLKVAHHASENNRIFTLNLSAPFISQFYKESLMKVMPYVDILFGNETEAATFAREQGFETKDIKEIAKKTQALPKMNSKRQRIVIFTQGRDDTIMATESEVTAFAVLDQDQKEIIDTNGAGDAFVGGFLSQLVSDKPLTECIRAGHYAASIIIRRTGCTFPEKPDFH

IC50 [nM]	Compound
20	Nc1ncnc2c1c(I)cn2[C@@H]1C[C@H](Nc2ccc(Cl)nn2)[C@@H](O)[C@H]1O
38	Nc1ncnc2c1c(I)cn2[C@@H]1C[C@H](Nc2ncccn2)[C@@H](O)[C@H]1O
15	O[C@@H]1[C@H](O)[C@@H](Nc2ccc(Br)cc2)C[C@H]1n1cc(I)c2c(Cl)ncnc21
200	CC(C)(C)OC(=O)[C@H](CC(N)=O)N[C@H]1C[C@@H](n2cc(I)c3c(Cl)ncnc32)[C@H](O)[C@@H]1O
48	NC(=O)C[C@H](N[C@H]1C[C@@H](n2cc(I)c3c(Cl)ncnc32)[C@H](O)[C@@H]1O)C(=O)O
3000	N[C@@H]1C=C[C@H](n2cc(I)c3c(Cl)ncnc32)C1
330	N[C@@H]1CC[C@H](n2cc(I)c3c(Cl)ncnc32)C1
150	O=C(O)CN[C@H]1C[C@@H](n2cc(I)c3c(Cl)ncnc32)[C@H](O)[C@@H]1O [drawing 14: R4=HO2 CCH2 NH; R5=Cl; R6=I, N7-((1'R,2'S,3'R,4'S)-2',3'-dihydroxy-4'-(carboxymethylene)amino-cyclopentyl)-4-chloro-5-iodo-pyrrolopyrimidine]
4	N[C@H]1C[C@@H](n2cc(C#Cc3ccccc3)c3c(C#Cc4ccccc4)ncnc32)[C@H](O)[C@@H]1O [drawing 14: R4=NH2; R5=C≡C--Ph; R6=C≡C--Ph]
35	N[C@H]1C[C@@H](n2cc(-c3ccccc3)c3c(Nc4ccccc4)ncnc32)[C@H](O)[C@@H]1O [drawing 14: R4=NH2; R5=NHPh; R6=Ph]

Compound	IC50 [nM]
CC(C)(C)OC(=O)[C@H](CC(N)=O)N([C@H]1C[C@@H](n2cc(I)c3c(Cl)ncnc32)[C@H](O)[C@@H]1O)S(=O)(=O)c1ccc([N+](=O)[O-])cc1[N+](=O)[O-]	350
CC(C)(C)OC(=O)CN[C@H]1C[C@@H](n2cc(I)c3c(Cl)ncnc32)[C@H](O)[C@@H]1O [drawing 14: R4=t-buOCOCH2 NH; R5=Cl; R6=I, N7-((1'R,2'S,3'R,4'S)-2',3'-dihydroxy-4'-(t-butoxycarbonyl-methylene)amino-cyclopentyl)-4-chloro-5-iodo-pyrrolopyrimidine]	28

same assay, conditions: Table 2, adenosine kinase

IC50 [nM]	Compound
175	O=C(Cc1ccccn1)N[C@H]1C[C@@H](n2cc(I)c3c(Cl)ncnc32)[C@H](O)[C@@H]1O
250	O=C(Cc1cccnc1)N[C@H]1C[C@@H](n2cc(I)c3c(Cl)ncnc32)[C@H](O)[C@@H]1O
480	CN(C)CC(=O)N[C@H]1C[C@@H](n2cc(I)c3c(Cl)ncnc32)[C@H](O)[C@@H]1O [drawing 27: R=(CH3)2 NCH2 CO, N7-((1'R,2'S,3'R,4'S)-2',3'-dihydroxy-4'-(dimethylaminoacetyl)amino-cyclopentyl)-4-chloro-5-iodo-pyrrolopyrimidine]
300	COC(=O)N[C@H]1C[C@@H](n2cc(I)c3c(Cl)ncnc32)[C@H](O)[C@@H]1O [drawing 27: R=CH3 OCO, N7-((1'R,2'S,3'R,4'S)-2',3'-dihydroxy-4'-(methoxycarbonyl)amino-cyclopentyl)-4-chloro-5-iodo-pyrrolo-pyrimidine]
32	NCC(=O)N[C@H]1C[C@@H](n2cc(I)c3c(Cl)ncnc32)[C@H](O)[C@@H]1O [drawing 27: R=NH2 CH2 CO, N7-((1'R,2'S,3'R,4'S)-2',3'-dihydroxy-4'-(amino-acetyl)amino-cyclopentyl)-4-chloro-5-iodo-pyrrolopyrimidine]

Compound	IC50 [nM]
CC(=O)O[C@@H]1[C@H](OC(C)=O)[C@@H](OC(C)=O)C[C@H]1n1cc(Cl)c2c(Cl)ncnc21 [drawing 24: R5=Cl; R6=Cl, N7-((1'R,2'S,3'R,4'S)-2',3',4'-triacetoxycyclopentyl)-4,5-dichloro-pyrrolopyrimidine]	> 10000
CC(=O)O[C@@H]1[C@H](OC(C)=O)[C@@H](OC(C)=O)C[C@H]1n1cc(I)c2c(Cl)ncnc21 [drawing 24: R5=Cl; R6=I, N7-((1'R,2'S,3'R,4'S)-2',3',4'-triacetoxycyclopentyl)-4-chloro-5-iodo-pyrrolopyrimidine]	> 100000

tested on: adenosine kinase; experiment: not given; conditions: literature, in words; cited from earlier work

Compound	reported to inhibit adenosine kinase; the most potent
NC[C@H]1O[C@@H](n2cnc3c(N)ncnc32)[C@H](O)[C@@H]1O [5'-amino,5'-deoxyadenosine]	most potent
C[C@H]1O[C@@H](n2cc(I)c3c(N)ncnc32)[C@H](O)[C@@H]1O [5'-deoxy-5-iodotubercidin]	most potent
Nc1ncnc2c1c(I)cn2[C@@H]1O[C@H](CO)[C@@H](O)[C@H]1O [5-iodotubercidin]	most potent
